Measured values published in patent US11834680B2, “Single kidney cell-derived organoids” (Rutgers, The State University of New Jersey, priority 2017, dated 2023).

Key:
[1] = test system: cultured nephron progenitor cells; experiment: Effect of activating Wnt signaling on kidney organoid formation, shape and size; format: cell-based, human
Experimental: The organoids generated from multiple patient samples had various phenotypes during the different times of 2D culture. A similar diversity in phenotypes was also detected in the 3D culture stage. Moreover, the organoids formed in 3D culture had both spherical or branching shapes. When […] (1 μM) was added to the media as a pulse for 12 h then media was replaced with fresh media without CHIR, branching tubular shaped organoids increased. In another group of experiments, the effects of addition of 1× B27 supplement were examined.
The Wnt signaling pathway is known to trigger the initiation of nephron progenitor cell differentiation. The effects of activating Wnt signaling in organoid studies was examined. Cultured 2D and 3D cells were treated with a GSK3 inhibitor CHIR99021 (CHIR), which activates the canonical Wnt signaling pathway. […] On the other hand, branching tubular shaped organoids increased.

[2] = test system: Nephrectomy-derived normal adjacent tissue (NAT) and RCC cells; experiment: Organoid forming efficiency (OFE) of kidney cells in 2D stage I / 3D Matrigel stage II culture; format: cell-based, human
Source text: The human kidney contains up to 2 million epithelial nephrons responsible for blood filtration. Regenerating the kidney requires the induction of the more than 20 distinct cell types required for excretion and the regulation of pH, and electrolyte and fluid balance. Herein is described the induction of progenitors for both collecting duct and nephrons via the directed differentiation of patient-derived normal and RCC cells derived from nephrectomy tissues. Under an IRB-approved protocol, nephrectomy specimens from high-risk RCC cases were collected and processed within 15 minutes of surgery. Areas containing tumor as deemed by the pathologist and normal adjacent tissue counterpart were microdissected. A 3D culture system fit for growth of kidney cells was first developed by isolating epithelial cells microdissected from primary RCC specimens. Qualified pathologists confirmed their renal origin from the corresponding H&E. Nephrectomy-derived normal adjacent tissue (NAT) and RCC cells were utilized to determine best conditions for generating organoids. A two-step methodology comprising a first phase of adult kidney stem cell enrichment, conducted in a 2D setting (stage I), followed by a second phase of organoid 3D growth obtained in pure matrigel chambers (stage II), was conducted. […] Stage I media included using either EGM2 or ADMED complete medium (with the addition of EGF, BFGF, IGF-1, VEGF, hydrocortisone, ascorbic acid, insulin, heparin, gentamicin, amphotericin-B, and 2% FBS).
Cells were placed in 3D droplet culture chambers in stage II complete media containing Matrigel, to mimic the basal lamina of the normal renal tissue, and growth factors in conditions that permits cellular self-organization of organoid forming cells. Kidney cells were embedded as single cells in 3D-well plates. Organoid formation was then followed microscopically daily for 2 weeks.

[3] = cultured 2D and 3D cells treated

Molecule: Cc1c[nH]c(-c2cnc(NCCNc3ccc(C#N)cn3)nc2-c2ccc(Cl)cc2Cl)n1 [CHIR99021]
- branching tubular shaped organoids ([1]; 1 μM added to the media as a pulse for 12 h, then fresh media): increased
- cell death [1, 3]: accompanied by cell death
- differentiation in cultured nephron progenitor cells [1, 3]: induced differentiation
- organoid size [1, 3]: smaller size organoids
- branching tubular shaped organoids ([1]; cultured 2D and 3D cells treated, concentration not given): increased

Molecule: IGF-1: Insulin Growth Factor 1, culture medium supplement
- organoid forming efficiency (OFE) ([2]; addition to the culture media): improved
- organoid forming efficiency (OFE) ([2]; doubling the IGF-1 dose (2×) in culture): did not increase

Molecule: Insulin: culture medium supplement
- organoid forming efficiency (OFE) ([2]; addition to the culture media): improved

Molecule: VEGF
- organoid forming efficiency (OFE) ([2]; addition to the culture media): improved

Molecule: heparin
- organoid forming efficiency (OFE) ([2]; addition to the culture media): improved
